Ends that are not written are not given here.

Experiment [1] has as its target HLA-DR DRB1*09:01 (Homo sapiens, UniProt P01903+P01911, A100R/A103E/D57H/D86V/F55Y/F60I/F76Y/I96F/K127E/L162R/M171V/P40D/Q125H/Q99R/R33Q/R42F/S133A/S66N/T210M/V115G/W38K/Y107V/Y59G/Y89S). Briefly: In vitro HLA binding assay with purified HLA-DR molecules.
In experiment [2] the target is HLA-DR DRB1*01:01 (Homo sapiens, UniProt P01903+P01911, A100R/D57E/F55L/F60I/F76Y/I96L/L162R/M171V/P40L/Q125E/R42F/V115G/Y59C). Described as above. The note with it: purified HLA-DR molecule; high affinity binding = IC50 <1,000 nM. The protocol:
(§1) In vitro binding assays with 14 of the peptides that elicited a response were performed using purified HLA-DR molecules, as previously described (Table 3) ([37]). MHC class II in silico binding predictions were defined, using the IEDB analysis resource ([38]–[40]), combining predictions from the ANN ([41], [42]) and SMM ([43]) algorithms (Supplementary Table 2A).
(§2) To test this hypothesis, we measured the in vitro capacity of the most frequently recognized EXP1 peptides to bind to a panel of 17 of the most prevalent human HLA-DR molecules, since the majority of HLA class II restricted CD4+ T cell responses are presented by these molecules ([49], [50]). Peptides with an IC50 of 1,000 nM or lower, a threshold previously found associated with the vast majority of HLA class II-restricted T cell epitopes, were considered binders to the respective DR molecule ([51]–[53]). […] These include EXP1-P14 which bound to five, EXP1-P15 to 13, EXP1-P16 to 10 and EXP1-P17 to nine different HLA molecules (Table 3).

The target in experiment [3] is HLA-DR DRB1*03:01 (Homo sapiens, UniProt P01903+P01911, A100K/A102G/A103R/A169T/F55Y/I96L/K41T/L162R/M171V/P40S/Q125H/Q178H/Q39Y/R42S/S66N/T106N/T262R/W38E/Y61H). The description is as above. To be noted: purified HLA-DR molecule; high affinity binding = IC50 <1,000 nM. The protocol:
as §1, §2

Experiment [4] concerns the target HLA-DR DRB1*04:01 (Homo sapiens, UniProt P01903+P01911, A100K/A169T/F76Y/I96L/K127E/L162R/M171V/N62H/P40V/Q125Y/R42H/S133A/S149N/S66Y/V115G/V209L/W38E). Described as above. The note with it: purified HLA-DR molecule; high affinity binding = IC50 <1,000 nM. The protocol: as §1, §2
In experiment [5] the target is HLA-DR DRB1*04:04 (Homo sapiens, UniProt P01903+P01911, A100R/A169T/F76Y/I96L/K127E/L162R/M171V/N62H/P40V/Q125Y/R42H/S133A/S149N/S66Y/V209L/W38E). Described as above. To be noted: purified HLA-DR molecule; high affinity binding = IC50 <1,000 nM. As to the method:
as §1, §2

The target in experiment [6] is HLA-DR DRB1*04:05 (Homo sapiens, UniProt P01903+P01911, A100R/A169T/D86S/F76Y/I96L/K127E/L162R/M171V/N62H/P40V/Q125Y/R42H/S133A/S149N/S66Y/V115G/V209L/W38E). The description is as above. To be noted: purified HLA-DR molecule; high affinity binding = IC50 <1,000 nM. The protocol:
as §1, §2

Experiment [7] has as its target HLA-DR DRB1*07:01 (Homo sapiens, UniProt P01903+P01911, A100R/A102G/A103Q/D57E/D86V/E43K/F76Y/K127E/L162R/M171V/P40G/Q125H/Q99D/R33Q/R42Y/R54Q/S133A/S66F/T210M/V115G/Y107V/Y59L/Y89S). Described as above. To be noted: purified HLA-DR molecule; high affinity binding = IC50 <1,000 nM. As to the method: as §1, §2
Experiment [8] addresses HLA-DR DRB1*08:02 (Homo sapiens, UniProt P01903+P01911, A100R/A103L/A169T/F76Y/H45Y/I96F/K41T/L162R/M171V/P40S/Q125H/Q178H/Q39Y/Q99D/R218S/R42G/S66Y/V115G/W38E). The experiment is described as above. To be noted: purified HLA-DR molecule; high affinity binding = IC50 <1,000 nM. The protocol:
as §1, §2

Experiment [9] has as its target HLA-DR DRB1*10:01 (Homo sapiens, UniProt P01903+P01911, A100R/A169T/D57E/F55L/F60V/F69Y/F76Y/I96L/L162R/M171V/P40V/Q260P/Q39E/Q99R/R195Q/R42F/S149N/S66Y/T210M/V115G/V67A/W38E/Y59R/Y61H). The experiment is described as above. To be noted: purified HLA-DR molecule; high affinity binding = IC50 <1,000 nM. The protocol: as §1, §2
Experiment [10] has as its target HLA-DR DRB1*11:01 (Homo sapiens, UniProt P01903+P01911, A100R/A169T/A87E/I96F/K41T/L162R/M171V/P40S/Q125H/Q178H/Q39Y/Q99D/R42S/S66Y/T262R/V115G/W38E). The description is as above. To be noted: purified HLA-DR molecule; high affinity binding = IC50 <1,000 nM. The protocol:
as §1, §2

Experiment [11] addresses HLA-DR DRB1*13:02 (Homo sapiens, UniProt P01903+P01911, A100E/A169T/K41T/L162R/M171V/P40S/Q125H/Q178H/Q39Y/Q99D/R42S/S66N/T262R/V115G/W38E/Y61H). The experiment is described as above. The note with it: purified HLA-DR molecule; high affinity binding = IC50 <1,000 nM. The protocol: as §1, §2
Experiment [12] deals with HLA-DR DRB1*15:01 (Homo sapiens, UniProt P01903+P01911). The experiment is described as above. The note with it: purified HLA-DR molecule; high affinity binding = IC50 <1,000 nM. As to the method:
as §1, §2

Experiment [13] concerns the target HLA-DR DRB3*01:01 (Homo sapiens, UniProt P01903+P79483). Described as above. The note with it: purified HLA-DR molecule; high affinity binding = IC50 <1,000 nM. As to the method:
as §1, §2

Experiment [14] has as its target HLA-DR DRB3*02:02 (Homo sapiens, UniProt P01903+P79483, A212P/D57E/F66Y/L67A/R103Q/R218S/R40L/S89Y/T80R/V86D/Y55F/Y59H). The description is as above. To be noted: purified HLA-DR molecule; high affinity binding = IC50 <1,000 nM. As to the method: as §1, §2
Experiment [15] deals with HLA-DR DRB4*01:01 (Homo sapiens, UniProt P01903+P13762, G164S). Described as above. To be noted: purified HLA-DR molecule; high affinity binding = IC50 <1,000 nM. As to the method: as §1, §2
Experiment [16] deals with HLA-DR DRB5*01:01 (Homo sapiens, UniProt P01903+Q30154). The experiment is described as above. To be noted: purified HLA-DR molecule; high affinity binding = IC50 <1,000 nM. The protocol: as §1, §2
Experiment [17] addresses HLA-DR DRB1*13:01 (Homo sapiens, UniProt P01903+P01911, A100E/A169T/K41T/L162R/M171V/P40S/Q125H/Q178H/Q39Y/Q99D/R42S/S66N/T262R/W38E/Y61H). Described as above. The note with it: purified HLA-DR molecule; high affinity binding = IC50 <1,000 nM. As to the method:
as §1, §2

Experiment [18] has as its system CD8+ T cells (PBMCs of malaria patients). In words: EXP1-specific CD8+ T cell response, ICS for IFNγ after in vitro culture. Type of experiment: cell-based, human. The note with it: patients HH-16, HH-18, HH-20 and HH-25; coincided with a CD4+ T cell response against the same peptide. The protocol:
Cryopreserved PBMCs were thawed and cultivated at 1–5 × 10^6 cells/ml for optimal results in 500 μl of R10 medium (RPMI 1640 medium with 10% FCS (Sigma Aldrich), 1% HEPES buffer and 1% Penicillin-Streptomycin). PBMCs were stimulated with EXP1 peptide pool 1 [EXP1 peptide 1-10 (EXP1-P01-10)], pool 2 (EXP1-P11-20) or pool 3 (EXP1-P21-31) (Table 2) at a final concentration of 10 μg/ml, together with 1 μg/ml of anti-CD28 and anti-CD49d antibodies [BD FastImmune™, clone: L293 (CD28) and clone: L25 (CD49d)] for 14 days. Medium with recombinant IL-2 (50 U/ml) was added when necessary. After 14 days, cells were re-stimulated with single EXP1-peptides (final concentration 10 μg/ml) and then assayed for interferon-γ (IFNγ) production by ELISPOT and intracellular cytokine staining (ICS) as previously described ([28]).
ICS was performed as previously described ([26], [28]). 5 × 10^5 PBMCs were stimulated with the corresponding EXP1 peptide at a final concentration of 10 μg/ml before blocking the secretion with 10 μg/ml Brefeldin A (Sigma Aldrich) 1 h after stimulation. […] Cells were then analyzed on a BD LSRFortessa (BD Bioscience). […]

Chain of HLA-DR DRB1*13:02 (P01903 26-254 limits assumed, other chains not shown): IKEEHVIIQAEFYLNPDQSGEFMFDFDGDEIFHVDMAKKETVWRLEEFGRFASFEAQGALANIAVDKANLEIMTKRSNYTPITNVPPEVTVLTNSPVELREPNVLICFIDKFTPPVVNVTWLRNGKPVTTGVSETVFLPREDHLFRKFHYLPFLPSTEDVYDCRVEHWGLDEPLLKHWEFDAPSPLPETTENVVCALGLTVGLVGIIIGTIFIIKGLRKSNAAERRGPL
Chain of HLA-DR DRB1*11:01 (P01903 26-254 limits assumed, other chains not shown): as above
Chain of HLA-DR DRB3*02:02 (P01903 26-254 limits assumed): as the sequence (P01903 26-254 limits assumed, other chains not shown) above
Chain of HLA-DR DRB3*02:02 (P79483 30-266 R40L/Y55F/D57E/Y59H/F66Y/L67A/T80R/V86D/S89Y/R103Q/A212P/R218S limits assumed): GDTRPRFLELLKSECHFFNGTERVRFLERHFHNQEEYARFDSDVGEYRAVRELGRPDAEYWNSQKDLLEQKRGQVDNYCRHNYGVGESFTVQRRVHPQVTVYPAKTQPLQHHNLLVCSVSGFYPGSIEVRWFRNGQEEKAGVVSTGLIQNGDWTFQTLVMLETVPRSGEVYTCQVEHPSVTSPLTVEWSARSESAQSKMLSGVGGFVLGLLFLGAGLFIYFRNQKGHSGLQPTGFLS
Chain of HLA-DR DRB1*03:01 (P01903 26-254, other chains not shown): as the sequence (P01903 26-254 limits assumed, other chains not shown) above

For orientation: IC50 means the midpoint of a concentration-inhibition curve. For the sequence RKSKYKLATSVLAGLL [EXP1-P15], the IC50 in experiment [1] turned out to be 3.9 nM; in [2] it was 1.1 nM; in [3], 5.82 µM; in [4] it was 1.2 nM; in [5] it was 48 nM; in experiment [6], 7.4 nM. The IC50 was found to be 1.4 nM in experiment [7]; 11900 nM in experiment [8]; 1.8 nM in [9]; 7 nM in experiment [10]; 39 µM in experiment [11]; 195 nM in experiment [12]. For the same sequence, the IC50 in [13] was 0.047 µM; in experiment [14], 0.002 µM; in [15] it was 230 nM; in experiment [16] it was 1 nM.
Take VLAGLLGVVSTVLLGGV [EXP1-P17]: the IC50 in experiment [1] turned out to be 12 nM; in experiment [2], 23 nM; in experiment [4], 1260 nM; in experiment [5], 47 nM; in [6], 824 nM; in experiment [7] it was 4.6 nM. Further, the IC50 in experiment [8] worked out at 49 nM; in experiment [9], 418 nM; in [10], 13700 nM; in experiment [17], 14.2 µM; in [11] it was 33.4 µM; in [12], 5 nM. In addition, the IC50 in experiment [13] came to 28.5 µM; in experiment [14], 14.9 µM; in [15], 2390 nM; in [16], 238 nM.
“KKGSGEPLIDVHDLI [EXP1-P09, overlapping peptide of P. falciparum EXP1, aa 40–54]”: the “CD8+ T cell response” value in experiment [18] is on record as “CD8+ T cell response”.
For GVGLVLYNTEKGRHP [EXP1-P20], the IC50 came out at 8940 nM in experiment [2]; 4.49 µM in experiment [3]; 26 nM in experiment [4]; 9.1 nM in [5]; 2950 nM in [6]; 9.3 nM in experiment [8]. Also, the IC50 in experiment [9] was 7970 nM; in experiment [10] it was 183 nM; in experiment [17], 0.122 µM; in experiment [11], 17.1 µM; in experiment [12], 24 nM; in experiment [14] it was 4.99 µM. Besides, the IC50 in [15] was 81 nM; in experiment [16] it was 539 nM.

Values taken from PMC6993587, “Detection of EXP1-Specific CD4+ T Cell Responses Directed Against a Broad Range of Epitopes Including Two Promiscuous MHC Class II Binders During Acute Plasmodium falciparum Malaria” (Frontiers in Immunology, 2020).
